Values joined by “and” are separate entries in the source; they are usually repeats but may differ in a detail not shown here. Equal values may be shown once.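 Cultured in 96-well plates, cells were exposed to test compound for 48 hours across five concentrations. GI50 is the concentration that inhibits growth by half. The concentration for full growth arrest is given as TGI.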

Test systems include HCT-116 colon; OVCAR-8 ovarian; OVCAR-3 ovarian; OVCAR-5 ovarian; NCI-H522 lung; UACC-257 melanoma; EKVX NSCLC; LOX IMVI melanoma; NCI-H460 lung; NCI-H23 lung.
Common to all, as to test: inhibition of tumour cell growth, NCI panel, 48 h

As to `CC(=O)OCC(=O)C1(O)C(C)CC2C3C=C(C)C4=Cc5c(cnn5-c5ccccc5)CC4(C)C3C(O)CC21C` (stereo not given), the GI50 in the assay on HCT-116 colon is 1450 nM; in the assay on OVCAR-8 ovarian, 2460 nM; in the assay with OVCAR-3 ovarian, 1670 nM; in the assay on OVCAR-5 ovarian, 1100 nM; in the assay on NCI-H522 lung, 1970 nM; with UACC-257 melanoma, 2960 nM. The GI50 is 1480 nM in the assay on EKVX NSCLC, 1690 nM in the assay on LOX IMVI melanoma, 1430 nM in the assay on NCI-H460 lung and 2200 nM in the assay on NCI-H23 lung. Moreover, the TGI with HCT-116 colon came out at 3.12 µM; with OVCAR-8 ovarian it was 25.5 µM; in the assay with OVCAR-3 ovarian it was 3.96 µM; in the assay on OVCAR-5 ovarian, 3.92 µM; in the assay with NCI-H522 lung, 5.24 µM; with UACC-257 melanoma, 12.2 µM. For the same compound, the TGI with EKVX NSCLC amounted to 13.1 µM; in the assay on LOX IMVI melanoma it was 4.82 µM; with NCI-H460 lung, 3.24 µM; with NCI-H23 lung it was 5.78 µM.

With `c1cnc2c(c1)Nc1cnncc1S2`, the TGI in the assay on HCT-116 colon, with OVCAR-8 ovarian, in the assay on OVCAR-3 ovarian, in the assay on OVCAR-5 ovarian, in the assay with NCI-H522 lung and in the assay with UACC-257 melanoma was greater than 100 µM each time. The TGI in the assay on EKVX NSCLC, with LOX IMVI melanoma, in the assay with NCI-H460 lung and in the assay on NCI-H23 lung was greater than 100 µM in each case.

As for `Brc1ccc(Br)nn1`, the GI50 in the assay on HCT-116 colon is 1480 nM; in the assay with OVCAR-8 ovarian, 2400 nM; in the assay on OVCAR-5 ovarian, 11700 nM; in the assay with NCI-H522 lung, 243 nM; in the assay on UACC-257 melanoma, 1720 nM; in the assay with EKVX NSCLC it was 8170 nM. Moreover, the GI50 in the assay with LOX IMVI melanoma is 1410 nM; in the assay with NCI-H460 lung, 3040 nM; with NCI-H23 lung, 1380 nM. The TGI with HCT-116 colon was found to be 2.84 µM; with OVCAR-8 ovarian, 9.26 µM; in the assay with OVCAR-5 ovarian it was 24.8 µM; in the assay with NCI-H522 lung, 0.928 µM; in the assay on UACC-257 melanoma it was 3.89 µM; in the assay with EKVX NSCLC, 24.7 µM. Moreover, the results for the TGI with LOX IMVI melanoma, with NCI-H460 lung and with NCI-H23 lung were 2.88 µM, greater than 33.8 µM and 4.23 µM, respectively.

Turning to `CC(C)[O-].CC(C)[O-].[O-]c1cccc2cccnc12.[O-]c1cccc2cccnc12.[Ti+4]`, the GI50 in the assay with HCT-116 colon was 3240 nM and 3870 nM; in the assay with OVCAR-3 ovarian, 15400 nM; in the assay on OVCAR-5 ovarian it was 51100 nM; with NCI-H522 lung, 1410 nM and 1930 nM; in the assay with EKVX NSCLC, greater than 100000 nM; in the assay on LOX IMVI melanoma it was 74000 nM. Besides, the GI50 with NCI-H23 lung is greater than 100000 nM. Also, the TGI was greater than 100 µM with HCT-116 colon; greater than 100 µM in the assay on OVCAR-8 ovarian; greater than 100 µM in the assay with OVCAR-3 ovarian; greater than 100 µM in the assay with OVCAR-5 ovarian; 2.84 µM and 5.68 µM in the assay with NCI-H522 lung; greater than 100 µM with UACC-257 melanoma. In addition, the TGI in the assay on EKVX NSCLC, with LOX IMVI melanoma and with NCI-H23 lung was greater than 100 µM throughout.

`COC(=O)C1=Cc2c(OC)cc(OC)c(OC)c2[C@H](c2cc(OC)c(OC)cc2OC)C1C(=O)OC` (stereo not given in full): the TGI in the assay with HCT-116 colon, in the assay on OVCAR-8 ovarian, in the assay on OVCAR-3 ovarian, with OVCAR-5 ovarian, with NCI-H522 lung and in the assay with EKVX NSCLC was greater than 100 µM each time. In addition, the TGI in the assay on LOX IMVI melanoma, with NCI-H460 lung and in the assay on NCI-H23 lung was greater than 100 µM in each case.

Regarding `OC(c1ccccc1)c1c(-c2ccccc2)oc(-c2ccccc2)c1C(O)c1ccccc1` (stereo not given), the TGI was found to be 18.3 µM in the assay with HCT-116 colon; 18.7 µM with OVCAR-3 ovarian; 32.6 µM in the assay on OVCAR-5 ovarian; 11.1 µM in the assay with NCI-H522 lung; 19.6 µM in the assay on EKVX NSCLC; 25.2 µM in the assay on LOX IMVI melanoma. Moreover, the TGI was 28.8 µM with NCI-H460 lung and 23.3 µM in the assay on NCI-H23 lung.

Take `Cc1cc(=O)[nH]c(CNC(=O)Cc2ccccc2)n1`: the TGI in the assay with OVCAR-8 ovarian, with OVCAR-3 ovarian, in the assay with OVCAR-5 ovarian, with NCI-H522 lung, in the assay with UACC-257 melanoma and with EKVX NSCLC was greater than 100 µM each time. Further, the TGI in the assay on LOX IMVI melanoma, with NCI-H460 lung and in the assay on NCI-H23 lung was greater than 100 µM throughout.

Turning to `Cc1cc2c(cc1C)[n+]([O-])c(-c1c(Cl)cccc1Cl)c(N)[n+]2[O-]`, the TGI was greater than 100 µM in the assay on OVCAR-8 ovarian; 99.5 µM in the assay with OVCAR-3 ovarian; greater than 100 µM in the assay with OVCAR-5 ovarian; 28 µM in the assay with NCI-H522 lung; 83.6 µM in the assay with UACC-257 melanoma; greater than 100 µM in the assay with EKVX NSCLC. The TGI with LOX IMVI melanoma is greater than 100 µM; in the assay with NCI-H460 lung, greater than 100 µM; in the assay with NCI-H23 lung, 75.8 µM.

In the case of `COc1ccc(-c2cncn2-c2cc(OC)c(OC)c(OC)c2)cc1F`, the GI50 was less than 15.8 nM in the assay with HCT-116 colon; less than 48.8 nM in the assay with OVCAR-8 ovarian; 21.9 nM in the assay with OVCAR-3 ovarian; 78.9 nM in the assay with OVCAR-5 ovarian; less than 10 nM in the assay with NCI-H522 lung; 153 nM with EKVX NSCLC. Moreover, the figures for the GI50 in the assay with LOX IMVI melanoma, with NCI-H460 lung and in the assay on NCI-H23 lung were less than 10 nM, less than 10 nM and 149 nM, respectively. For the same compound, the TGI was 15.8 µM in the assay with HCT-116 colon; greater than 100 µM in the assay on OVCAR-8 ovarian; 22.2 µM in the assay with OVCAR-3 ovarian; greater than 100 µM with OVCAR-5 ovarian; 1.03 µM with NCI-H522 lung; greater than 100 µM with EKVX NSCLC. In addition, the TGI was 64.9 µM with LOX IMVI melanoma, greater than 100 µM with NCI-H460 lung and greater than 100 µM with NCI-H23 lung.

Consider `COc1ccc(NC(=O)O[C@H]2[C@H](O[C@H]3[C@@H](O)COC(O[C@H]4C[C@H]5[C@@H]6CC=C7C[C@@H](O)CC[C@]7(C)[C@H]6CC[C@]5(C)[C@H]4[C@H](C)C(=O)CCC(C)C)[C@@H]3OC(C)=O)OC[C@@H](O)[C@@H]2O)cc1` (stereo not given in full), for which the GI50 in the assay with HCT-116 colon is less than 10 nM; in the assay with OVCAR-8 ovarian it was 7750 nM; in the assay with OVCAR-3 ovarian, 1110 nM; with OVCAR-5 ovarian, 169 nM; in the assay with NCI-H522 lung, less than 10 nM; in the assay on EKVX NSCLC, 349 nM. Also, the GI50 is less than 10 nM in the assay on LOX IMVI melanoma, less than 10 nM in the assay with NCI-H460 lung and 28.4 nM in the assay with NCI-H23 lung. Further, the TGI with HCT-116 colon was 14.4 µM; in the assay on OVCAR-8 ovarian it was greater than 100 µM; with OVCAR-3 ovarian, 31.5 µM; in the assay on OVCAR-5 ovarian it was 26.2 µM; in the assay with NCI-H522 lung it was 0.0759 µM; in the assay on EKVX NSCLC, 11.2 µM. Also, the TGI is less than 0.01 µM with LOX IMVI melanoma, 1.76 µM in the assay with NCI-H460 lung and 5.03 µM with NCI-H23 lung.

The record behind these values is PubChem BioAssay (NCI).
